According to ChEMBL document CHEMBL4177596, “Flavonoids and their derivatives with β-amyloid aggregation inhibitory activity from the leaves and twigs of Pithecellobium clypearia Benth” (Bioorg Med Chem Lett, 2017):
Activity calls are given as the source filed them. No cut-off for these calls is given here.

Tests used:
[1] = test system: SH-SY5Y; test: Neuroprotective activity against H2O2-induced cell death in human SH-SY5Y cells assessed as increase in cell viability at 100 uM pretreated for 12 hrs followed by H2O2 challenge measured after 3 hrs by MTT assay; type: functional, cell-based
[2] = target: Amyloid-beta precursor protein (Homo sapiens) (UniProt P05067); test: Inhibition of HFIP-pretreated amyloid beta (1 to 42) (unknown origin) self-induced aggregation at 20 uM incubated for 24 hrs under dark condition by thioflavin-T based fluorometric assay relative to control
Sequence of Amyloid-beta precursor protein (Homo sapiens) (P05067 whole entry): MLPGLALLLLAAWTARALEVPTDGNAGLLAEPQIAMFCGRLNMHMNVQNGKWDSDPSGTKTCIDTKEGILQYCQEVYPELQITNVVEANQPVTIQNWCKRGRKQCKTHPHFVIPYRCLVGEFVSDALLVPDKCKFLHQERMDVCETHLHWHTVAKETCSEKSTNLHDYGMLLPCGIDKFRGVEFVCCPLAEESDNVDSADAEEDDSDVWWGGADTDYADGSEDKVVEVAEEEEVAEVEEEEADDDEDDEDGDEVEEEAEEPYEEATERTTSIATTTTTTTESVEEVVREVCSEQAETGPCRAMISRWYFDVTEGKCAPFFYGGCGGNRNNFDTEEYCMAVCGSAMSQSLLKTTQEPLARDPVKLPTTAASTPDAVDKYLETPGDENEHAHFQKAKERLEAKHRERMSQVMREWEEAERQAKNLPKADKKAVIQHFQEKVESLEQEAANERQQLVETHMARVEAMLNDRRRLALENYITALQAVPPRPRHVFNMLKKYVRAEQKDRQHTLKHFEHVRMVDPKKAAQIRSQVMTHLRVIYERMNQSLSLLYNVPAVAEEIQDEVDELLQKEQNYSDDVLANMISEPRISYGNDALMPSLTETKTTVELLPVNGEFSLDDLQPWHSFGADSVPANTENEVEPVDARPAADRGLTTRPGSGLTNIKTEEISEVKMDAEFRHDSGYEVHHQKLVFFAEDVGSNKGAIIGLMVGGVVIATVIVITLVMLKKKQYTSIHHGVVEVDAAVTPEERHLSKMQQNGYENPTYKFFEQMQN

[3] = test system: SH-SY5Y; test: Neuroprotective activity against H2O2-induced morphological changes in human SH-SY5Y cells assessed as reduction in appearance of apoptotic bodies at 100 uM by phase contrast microscopic analysis; type: functional, cell-based
[4] = test system: SH-SY5Y; test: Neuroprotective activity against H2O2-induced morphological changes in human SH-SY5Y cells assessed as reduction in cell shrinkage at 100 uM by phase contrast microscopic analysis; type: functional, cell-based

Structure (SMILES)	Activity [1]	inhibition [2]	Activity [3]	Activity [4]
O=c1c(O)c(-c2ccc(O)c(O)c2)oc2cc(O)cc(O)c12	Active	88.4%	–	–
COc1cc(O)c(C[C@H](O)Cc2ccc(O)c(OC)c2)c(OC)c1	–	Active	–	–
O=C(Oc1cc(O)c2c(c1)O[C@H](c1cc(O)c(OC(=O)c3cc(O)c(O)c(O)c3)c(O)c1)[C@@H](O)C2)c1cc(O)c(O)c(O)c1	Active	56.3%	–	–
O=c1cc(-c2ccc(O)c(O)c2)oc2cc(O)cc(O)c12	Active	86.5%	–	–
O=C(O[C@@H]1Cc2c(O)cc(O)cc2O[C@@H]1c1cc(O)c(O)c(O)c1)c1cc(O)c(O)c(O)c1	–	86.1%	–	–
O=C1c2ccc(O)c(O)c2O[C@H](c2ccc(O)c(O)c2)[C@H]1O	Active	87.7%	Active	Active
COc1cc(O)cc2oc(-c3ccc(O)cc3)cc(=O)c12	–	Active	–	–
C[C@@H]1Oc2cccc(O)c2C(=O)[C@@H]1O	–	Active	–	–
O=C(Oc1cc(O)c2c(c1)O[C@@H](c1cc(O)c(O)c(O)c1)CC2)c1cc(O)c(O)c(O)c1	Active	Active	–	–
Oc1cc([C@@H]2CCc3c(O)cccc3O2)cc(O)c1O	–	59.6%	–	–
C[C@H]1O[C@H](Oc2c(-c3ccc(O)c(O)c3)oc3cc(O)cc(O)c3c2=O)[C@@H](O)[C@@H](O)[C@@H]1O	–	70.7%	–	–
C[C@@H]1O[C@@H](Oc2c(-c3cc(O)c(O)c(O)c3)oc3cc(O)cc(O)c3c2=O)[C@H](O)[C@H](O)[C@H]1O	–	62.2%	–	–
COc1cc(OC)c2c(c1)O[C@H](c1cc(O)c(O)c(OC)c1)[C@@H](O)C2	–	Active	–	–
COc1cc(-c2cc(=O)c3c(OC)cc(O)cc3o2)ccc1O	–	Active	–	–
O=C(Oc1cc(O)c2c(c1)O[C@H](c1ccc(O)c(O)c1)[C@@H](O)C2)c1cc(O)c(O)c(O)c1	Active	Active	–	–
O=C(Oc1cc(O)c2c(c1)O[C@H](c1cc(O)c(O)c(O)c1)[C@@H](O)C2)c1cc(O)c(O)c(O)c1	Active	Active	–	–
